ChEMBL document CHEMBL4477227, “Synthesis and antibacterial evaluation of macrocyclic diarylheptanoid derivatives” (Bioorg Med Chem Lett, 2016)
Values after ≈ are worked out from the molar mass of the structure shown.

Experiments:
Acinetobacter baumannii = test: Antibacterial activity against Acinetobacter baumannii ATCC 19606 by microbroth dilution method; type: functional, ATCC 19606 = CIP 70.34 = JCM 6841; conditions: Acinetobacter baumannii, ATCC 19606 = CIP 70.34 = JCM 6841; read-out: MIC
Klebsiella pneumoniae = test: Antibacterial activity against Klebsiella pneumoniae ATCC 33495 by microbroth dilution method; type: functional
Staphylococcus aureus [1] = test: Antibacterial activity against methicillin-resistant Staphylococcus aureus NRS70 by microbroth dilution method; type: functional; conditions: Staphylococcus aureus, NRS70; read-out: MIC
Proteus vulgaris = test: Antibacterial activity against Proteus vulgaris ATCC 33420 by microbroth dilution method; type: functional
Staphylococcus aureus [2] = test: Antibacterial activity against methicillin-sensitive Staphylococcus aureus ATCC 29213 by microbroth dilution method; type: functional; conditions: Staphylococcus aureus, ATCC 29213; read-out: MIC
Bacillus anthracis = test: Antibacterial activity against Bacillus anthracis Sterne 34F2 by microbroth dilution method; type: functional; conditions: Bacillus anthracis, Sterne 34F2; read-out: MIC
Escherichia coli [3] = test: Antibacterial activity against Escherichia coli K-12 by microbroth dilution method; type: functional
Vero = test: Cytotoxicity against African green monkey Vero cells assessed as reduction in cell viability after 72 hrs by CellTiterGlo assay; type: cell-based; conditions: Chlorocebus sabaeus
Streptococcus pneumoniae = test: Antibacterial activity against Streptococcus pneumoniae R6 by microbroth dilution method; type: functional; conditions: Streptococcus pneumoniae, R6; read-out: MIC
Pseudomonas aeruginosa = test: Antibacterial activity against Pseudomonas aeruginosa PAO1 by microbroth dilution method; type: functional
Proteus mirabilis = test: Antibacterial activity against Proteus mirabilis ATCC 25933 by microbroth dilution method; type: functional
Enterococcus faecalis = test: Antibacterial activity against Enterococcus faecalis ATCC 33186 by microbroth dilution method; type: functional; conditions: Enterococcus faecalis, ATCC 33186; read-out: MIC
Burkholderia cepacia = test: Antibacterial activity against Burkholderia cepacia ATCC 25416 by microbroth dilution method; type: functional
Bacillus subtilis = test: Antibacterial activity against Bacillus subtilis ATCC 23857 by microbroth dilution method; type: functional; conditions: Bacillus subtilis, ATCC 23857; read-out: MIC
Streptococcus pyogenes = test: Antibacterial activity against Streptococcus pyogenes ATCC 700294 by microbroth dilution method; type: functional; conditions: Streptococcus pyogenes, ATCC 700294; read-out: MIC
Escherichia coli [4] = test: Antibacterial activity against Escherichia coli harboring TolC deletion mutant by microbroth dilution method; type: functional; conditions: Escherichia coli; read-out: MIC
[5] = tested on: Mycobacterium tuberculosis; test: Antitubercular activity against Mycobacterium tuberculosis H37Rv by microbroth dilution method; type: functional; conditions: Mycobacterium tuberculosis, H37Rv; read-out: MIC
J774.1 = test: Inhibition of LPS-induced NO production in mouse J774.1 cells after 24 by Griess assay; type: functional, cell-based

Row | SMILES | MIC (Acinetobacter baumannii) | MIC (Klebsiella pneumoniae) | MIC (Staphylococcus aureus [1]) | MIC (Proteus vulgaris) | MIC (Staphylococcus aureus [2]) | MIC (Bacillus anthracis) | MIC (Escherichia coli [3]) | IC50 (Vero) | MIC (Streptococcus pneumoniae) | MIC (Pseudomonas aeruginosa) | MIC (Proteus mirabilis) | MIC (Enterococcus faecalis) | MIC (Burkholderia cepacia) | MIC (Bacillus subtilis) | MIC (Streptococcus pyogenes) | MIC (Escherichia coli [4]) | MIC [5] | IC50 (J774.1)
1 | COc1ccc2cc1Oc1cc(ccc1OC)CCC(NCCc1ccc(F)cc1)CCCC2 (configuration not stated) | 25 µg/mL (≈ 53.9 µM) | > 100 µg/mL | 12.5 µg/mL (≈ 27 µM) | > 100 µg/mL | 25 µg/mL (≈ 53.9 µM) | 25 µg/mL (≈ 53.9 µM) | > 100 µg/mL | 7.3 µg/mL (≈ 15.7 µM) | 50 µg/mL (≈ 108 µM) | > 100 µg/mL | > 100 µg/mL | 25 µg/mL (≈ 53.9 µM) | > 100 µg/mL | 12.5 µg/mL (≈ 27 µM) | 25 µg/mL (≈ 53.9 µM) | 12.5 µg/mL (≈ 27 µM) | 25 µg/mL (≈ 53.9 µM) | –
2 | COc1ccc2cc1Oc1cc(ccc1OC)CCC(NCCc1ccc(Br)cc1)CCCC2 (configuration not stated) | 50 µg/mL (≈ 95.3 µM) | > 100 µg/mL | 12.5 µg/mL (≈ 23.8 µM) | > 100 µg/mL | 12.5 µg/mL (≈ 23.8 µM) | 12.5 µg/mL (≈ 23.8 µM) | > 100 µg/mL | 6.9 µg/mL (≈ 13.2 µM) | 50 µg/mL (≈ 95.3 µM) | > 100 µg/mL | > 100 µg/mL | 12.5 µg/mL (≈ 23.8 µM) | > 100 µg/mL | 6.25 µg/mL (≈ 11.9 µM) | 50 µg/mL (≈ 95.3 µM) | 12.5 µg/mL (≈ 23.8 µM) | 25 µg/mL (≈ 47.7 µM) | –
3 | COc1ccc2cc1Oc1cc(ccc1OC)CCC(NC/C=C(\C)CCC=C(C)C)CCCC2 (configuration not stated) | 25 µg/mL (≈ 52.3 µM) | > 100 µg/mL | 6.25 µg/mL (≈ 13.1 µM) | > 100 µg/mL | 12.5 µg/mL (≈ 26.2 µM) | 12.5 µg/mL (≈ 26.2 µM) | 50 µg/mL (≈ 105 µM) | 5.6 µg/mL (≈ 11.7 µM) | 50 µg/mL (≈ 105 µM) | > 100 µg/mL | > 100 µg/mL | 12.5 µg/mL (≈ 26.2 µM) | > 100 µg/mL | 3.12 µg/mL (≈ 6.54 µM) | 25 µg/mL (≈ 52.3 µM) | 6.25 µg/mL (≈ 13.1 µM) | 12.5 µg/mL (≈ 26.2 µM) | –
4 | COc1ccc2cc1Oc1cc(ccc1OC)CCC(NCCc1ccc(Cl)cc1)CCCC2 (configuration not stated) | 25 µg/mL (≈ 52.1 µM) | > 100 µg/mL | 12.5 µg/mL (≈ 26 µM) | > 100 µg/mL | 12.5 µg/mL (≈ 26 µM) | 12.5 µg/mL (≈ 26 µM) | > 100 µg/mL | 6.8 µg/mL (≈ 14.2 µM) | 25 µg/mL (≈ 52.1 µM) | > 100 µg/mL | > 100 µg/mL | 12.5 µg/mL (≈ 26 µM) | > 100 µg/mL | 6.25 µg/mL (≈ 13 µM) | 12.5 µg/mL (≈ 26 µM) | 6.25 µg/mL (≈ 13 µM) | 25 µg/mL (≈ 52.1 µM) | –
5 | COc1ccc2cc1Oc1ccc(cc1)CCC(NCCc1ccc(F)cc1)CCCC2 (configuration not stated) | 50 µg/mL (≈ 115 µM) | > 100 µg/mL | 6.25 µg/mL (≈ 14.4 µM) | > 100 µg/mL | 12.5 µg/mL (≈ 28.8 µM) | 12.5 µg/mL (≈ 28.8 µM) | > 100 µg/mL | 3.7 µg/mL (≈ 8.53 µM) | 50 µg/mL (≈ 115 µM) | > 100 µg/mL | > 100 µg/mL | 12.5 µg/mL (≈ 28.8 µM) | > 100 µg/mL | 6.25 µg/mL (≈ 14.4 µM) | 25 µg/mL (≈ 57.7 µM) | 6.25 µg/mL (≈ 14.4 µM) | 12.5 µg/mL (≈ 28.8 µM) | –
6 | O=C1CCCCc2ccc(OC(=O)c3ccccc3)c(c2)Oc2ccc(cc2)CC1 | – | – | – | – | – | – | – | – | – | – | – | – | – | – | – | – | – | 13 µM
7 | COc1ccc2cc1Oc1cc(ccc1OC)CCC(NC(=O)NCCc1ccc(F)cc1)CCCC2 (configuration not stated) | > 100 µg/mL | > 100 µg/mL | > 100 µg/mL | > 100 µg/mL | > 100 µg/mL | > 100 µg/mL | > 100 µg/mL | – | > 100 µg/mL | > 100 µg/mL | > 100 µg/mL | > 100 µg/mL | > 100 µg/mL | > 100 µg/mL | > 100 µg/mL | > 100 µg/mL | > 100 µg/mL | –
8 | Oc1ccc2cc1Oc1cc(ccc1O)CCC(NCCc1ccccc1)CCCC2 (configuration not stated) | 50 µg/mL (≈ 120 µM) | > 100 µg/mL | 50 µg/mL (≈ 120 µM) | > 100 µg/mL | > 100 µg/mL | 50 µg/mL (≈ 120 µM) | 100 µg/mL (≈ 239 µM) | 11.1 µg/mL (≈ 26.6 µM) | 50 µg/mL (≈ 120 µM) | > 100 µg/mL | > 100 µg/mL | 50 µg/mL (≈ 120 µM) | > 100 µg/mL | 25 µg/mL (≈ 59.9 µM) | 50 µg/mL (≈ 120 µM) | 25 µg/mL (≈ 59.9 µM) | 25 µg/mL (≈ 59.9 µM) | –
9 | COc1ccc2cc1Oc1cccc(c1)CCCCC(NCCc1ccc(F)cc1)CC2 (configuration not stated) | 50 µg/mL (≈ 115 µM) | > 100 µg/mL | 12.5 µg/mL (≈ 28.8 µM) | > 100 µg/mL | 25 µg/mL (≈ 57.7 µM) | 25 µg/mL (≈ 57.7 µM) | > 100 µg/mL | – | 50 µg/mL (≈ 115 µM) | > 100 µg/mL | > 100 µg/mL | 12.5 µg/mL (≈ 28.8 µM) | > 100 µg/mL | 6.25 µg/mL (≈ 14.4 µM) | 50 µg/mL (≈ 115 µM) | 12.5 µg/mL (≈ 28.8 µM) | 25 µg/mL (≈ 57.7 µM) | –
10 | COc1ccc2cc1Oc1cc(ccc1OC)CCC(NCCc1ccc3ccccc3c1)CCCC2 (configuration not stated) | > 100 µg/mL | > 100 µg/mL | 6.25 µg/mL (≈ 12.6 µM) | > 100 µg/mL | 12.5 µg/mL (≈ 25.2 µM) | 12.5 µg/mL (≈ 25.2 µM) | > 100 µg/mL | 7 µg/mL (≈ 14.1 µM) | 25 µg/mL (≈ 50.4 µM) | > 100 µg/mL | > 100 µg/mL | 12.5 µg/mL (≈ 25.2 µM) | > 100 µg/mL | 6.25 µg/mL (≈ 12.6 µM) | 12.5 µg/mL (≈ 25.2 µM) | 6.25 µg/mL (≈ 12.6 µM) | 25 µg/mL (≈ 50.4 µM) | –
